According to the NIST ThermoML archive (doi:10.1016/j.jct.2015.07.005):
“And” between values parts separate entries of the source, which are not always exact repeats. Equal entries are not always repeated.

Settings: Gas, Frequency=0.005 MHz, Spherical cavity resonance method

CC [ethane]
Settings	speed of sound
280.01 K, 500.43 kPa	294.64 m/s and 294.65 m/s and 294.64 m/s
280.02 K, 500.43 kPa	294.65 m/s and 294.65 m/s
280.02 K, 500.44 kPa	294.65 m/s
319.55 K, 463.5 kPa	316.22 m/s
319.55 K, 463.51 kPa	316.22 m/s
319.95 K, 464.08 kPa	316.4 m/s
319.95 K, 464.09 kPa	316.4 m/s
324.99 K, 479.74 kPa	318.64 m/s
324.99 K, 479.75 kPa	318.65 m/s
325 K, 479.75 kPa	318.65 m/s and 318.65 m/s
325 K, 479.76 kPa	318.65 m/s
339.37 K, 492.93 kPa	325.4 m/s
339.89 K, 493.66 kPa	325.64 m/s
359.27 K, 522.1 kPa	334.3 m/s
359.27 K, 522.11 kPa	334.3 m/s
359.85 K, 523.03 kPa	334.57 m/s and 334.57 m/s
365 K, 479.42 kPa	337.34 m/s and 337.34 m/s
365.01 K, 479.42 kPa	337.35 m/s and 337.35 m/s
365.01 K, 479.43 kPa	337.34 m/s and 337.35 m/s
379.19 K, 551.11 kPa	342.95 m/s
379.76 K, 551.9 kPa	343.19 m/s
379.77 K, 551.9 kPa	343.19 m/s
399.22 K, 579.97 kPa	351.41 m/s
399.8 K, 580.93 kPa	351.69 m/s and 351.69 m/s
404.98 K, 531.39 kPa	354.23 m/s
404.98 K, 531.4 kPa	354.23 m/s
404.98 K, 531.41 kPa	354.22 m/s
419.45 K, 608.87 kPa	359.75 m/s
419.46 K, 608.88 kPa	359.76 m/s
419.91 K, 609.51 kPa	359.94 m/s
419.92 K, 609.52 kPa	359.95 m/s
444.98 K, 496.44 kPa	370.72 m/s
444.98 K, 496.45 kPa	370.72 m/s and 370.72 m/s and 370.72 m/s
444.99 K, 496.45 kPa	370.72 m/s
484.95 K, 497.52 kPa	386.13 m/s
484.95 K, 497.53 kPa	386.13 m/s
484.95 K, 497.54 kPa	386.13 m/s
484.95 K, 497.55 kPa	386.14 m/s
484.95 K, 497.56 kPa	386.14 m/s
484.96 K, 497.55 kPa	386.14 m/s and 386.14 m/s
484.96 K, 539.51 kPa	386 m/s
484.96 K, 539.52 kPa	386 m/s and 386 m/s
